According to patent US12715851B2, “4′-substituted analogues of fisetin and their use in the treatment of cancer” (Stellenbosch University, priority 2020, dated 2026):
“Also recorded” adds a separate entry of the source.

How the values were obtained:
[1] = test system: reduced glutathione (GSH); test: Hepatotoxicity: reduced glutathione; type: in vivo, swiss albino mice; conditions: 50 mg/kg orally, two weeks
Experimental: (§1) Hepatotoxicity is considered to be one of the major challenges for drug development schemes. The liver is the primary organ for the metabolism or biotransformation of a given drug. To assess the hepatotoxicity of these compounds, the effects of Fisetin and analogue 3c on various hepatic enzymes was assessed.
(§2) A lipid peroxidation assay was performed on microsomal liver fraction and determined in terms of TBARS formation. […] The modulatory effects of Fisetin and analogue 3c were determined on the specific activities of cytochrome b5 reductase (Cytb5R) and cytochrome P450 reductase (CytP450R), phase I enzyme of xenobiotic metabolism. Fisetin and analogue 3c caused reduction in the specific activity of cytochrome b5 reductase. Fisetin decreased Cytb5R specific activity by 66% whereas analogue 3c (50 mg/kg) caused a 36% reduction in specific activity (FIG. 7F). An increase in specific activity of CytP450R by Fisetin and analogue 3c was observed. Fisetin and analogue 3c (50 mg/kg) increased the specific activity by 15% and 13%, respectively (FIG. 7G). Next, the specific activities of phase II enzymes, glutathione S-transferase (GST) and reduced glutathione (GSH) were measured. […] Fisetin and analogue 3c (50 mg/kg) caused a decrease in specific activity of GSH by 34% and 7%, respectively (FIG. 7I). […] These analogues are therefore likely to be effective and safe phytochemicals.

[2] = test system: B(a)P-induced lung carcinogenesis; test: B(a)P-induced lung carcinogenesis, Initiation and Promotion Protocols; type: in vivo, Swiss albino mice
Text: To assess whether Fisetin and its 4-bromo-Fisetin analogue (Fisetin analogue 3c) have anticarcinogenesis activity and if any toxicity in terms of water and food consumption, and body weight, Benzo[a]pyrene [B(a)P] induced lung carcinogenesis in Swiss albino mice were employed in the study. Along with the antitumor activity of the agents, the body weight, food and water intake in different treatment groups were monitored on regular intervals and analysed.
There were six different treatment groups in the study including, (1) control, (2) B(a)P, (3) Fisetin+B(a)P, (4) Fisetin analogue 3c+B(a)P, (5) B(a)P+Fisetin and (6) B(a)P+Fisetin analogue 3c.
Groups 3 and 4 represent the Initiation Protocol (agents treatment started 1 week before carcinogen treatment and continued 1 week after the last dose of the carcinogen). Groups 5 and 6 represent the Promotion Protocol (agents treatment started after 3 weeks of the carcinogen treatment). The B(a)P was given orally twice a week for 4 weeks at 50 mg/kg body weight dose, whereas Fisetin and Fisetin analogue (3c) were administered orally at 25 mg/kg body weight thrice weekly (see FIG. 9).

[3] = test system: glutathione S-transferase (GST); test: Hepatotoxicity: specific activity of glutathione S-transferase; type: in vivo, swiss albino mice; conditions: liver of treated mice
Experimental: as §1, §2

H1299 cancer cells = test: Apoptosis assay; type: cell-based, human; conditions: 48 h
Text: [Worded in the source for another cell line; used here, by the source, with some conditions changed.] (§3) In A549, analogue 3a induced 8.2 and 11.2% apoptosis, analogue 3c induced 13.4 and 17.2% apoptosis, and analogue 3e induced 10.6 to 19.5% apoptosis compared to 4.7% in control cells (FIG. 6A).

A549 = test: Apoptosis assay; type: cell-based, human; conditions: 48 h, control cells 4.7%
Text: as §3

O=c1c(O)c(-c2ccc(Br)cc2)oc2cc(O)ccc12 [analogue 3c, 4′-Bromo-3,7-dihydroxyflavone]
decrease in specific activity of GSH [1]: 7%
systemic toxicity during long-term application ([2]; 25 mg/kg orally thrice weekly): did not show any systemic toxicity
tumorigenic features in lung histology (nucleus size, cytoplasmic content, alveoli) ([2]; 25 mg/kg orally thrice weekly): reversal of the tumorigenic features
tumor incidence, histopathology of H&E stained serial sections ([2]; compared to the carcinogen treated group): less
decrease of area or size of lesions ([2]; initiation group): approximately 50%
efficacy in inhibiting B(a)P induced lung carcinogenesis, in words ([2]; mouse model): efficacious; also recorded: more effective in reducing the number as well as the size of the lung tumor lesions as compared to the parent compound Fisetin
decrease of area or size of lesions ([2]; promotion group): more than 50%
reduction of total number of lesions ([2]; tumor initiation group): approximately 50%
surface tumor lesion incidence, gross observation of lung ([2]; tumor initiation phase, B(a)P-only group 100% incidence): only one mouse showed surface tumor lesion out of five
tumor lesions per mouse and total number of lesions per group, in words ([2]; versus B(a)P group): strongly reduced
specific activities of GST compared to the control group [3]: did not cause significant change
apoptosis (H1299 cancer cells; IC50 concentration): 13.4%
apoptosis (H1299 cancer cells; higher concentration 10 μM): 17.2%
apoptosis (A549; IC50 concentration): 13.4%
apoptosis (A549; higher concentration 20 μM): 17.2%
